Assay results as given in ChEMBL document CHEMBL1201862, “PubChem BioAssay data set” (2004).
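Dose response: 5 concentrations. Exposure: 48 h. Format: 96-well plates. Endpoint: linear interpolation; highest concentration if not reached. Abbreviation: GI50, concentration required for 50% inhibition of growth.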 The source made the active and inactive calls. Rule as the data show it: active = GI50 up to about 1.1 µM and inactive = higher.

Legend:
Test in all cases: inhibition of tumour cell growth, NCI panel, 48 h
HCT-116 = tested on: HCT-116
SNB-75 = tested on: SNB-75
Malme-3M = tested on: Malme-3M
NCI-H460 = tested on: NCI-H460
NCI-H226 = tested on: NCI-H226
EKVX = tested on: EKVX
HOP-62 = tested on: HOP-62
PC-3 = tested on: PC-3
SNB-19 = tested on: SNB-19
SF-539 = tested on: SF-539
NCI-H23 = tested on: NCI-H23
A549 = tested on: A549
DU-145 = tested on: DU-145
KM12 = tested on: KM12
K562 = tested on: K562
SR = tested on: SR
TK-10 = tested on: TK-10
U-251 = tested on: U-251
SF-295 = tested on: SF-295
BT-549 = tested on: BT-549
SF-268 = tested on: SF-268
SK-MEL-5 = tested on: SK-MEL-5
A498 = tested on: A498
SK-OV-3 = tested on: SK-OV-3
HCT-15 = tested on: HCT-15
ACHN = tested on: ACHN
SW-620 = tested on: SW-620
OVCAR-3 = tested on: OVCAR-3
SK-MEL-2 = tested on: SK-MEL-2
MDA-N = tested on: MDA-N
RXF 393 = tested on: RXF 393
OVCAR-4 = tested on: OVCAR-4
MDA-MB-435 = tested on: MDA-MB-435
M14 = tested on: M14
SK-MEL-28 = tested on: SK-MEL-28
OVCAR-5 = tested on: OVCAR-5
CAKI-1 = tested on: CAKI-1
UO-31 = tested on: UO-31
LOX IMVI = tested on: LOX IMVI
OVCAR-8 = tested on: OVCAR-8
NCI-H522 = tested on: NCI-H522
COLO 205 = tested on: COLO 205
786-0 = tested on: 786-0
UACC-257 = tested on: UACC-257
CCRF-CEM = tested on: CCRF-CEM
HOP-92 = tested on: HOP-92
IGROV-1 = tested on: IGROV-1
HCC 2998 = tested on: HCC 2998
T47D = tested on: T47D
MCF7 = tested on: MCF7
HT-29 = tested on: HT-29
UACC-62 = tested on: UACC-62
SN12C = tested on: SN12C
RPMI-8226 = tested on: RPMI-8226
Hs-578T = tested on: Hs-578T
MDA-MB-231 = tested on: MDA-MB-231
NCI/ADR-RES = tested on: NCI/ADR-RES
MOLT-4 = tested on: MOLT-4
HL-60 = tested on: HL-60

SMILES: Clc1ccccc1C(Nc1cnccn1)Nc1cnccn1
- GI50 (HCT-116): 98.2 µM (inactive)
- GI50 (SNB-75): 96.6 µM (inactive)
- GI50 (Malme-3M): > 100 µM (inactive)
- GI50 (NCI-H460): > 100 µM (inactive)
- GI50 (NCI-H226): > 100 µM (inactive)
- GI50 (EKVX): > 100 µM (inactive)
- GI50 (HOP-62): > 100 µM (inactive)
- GI50 (PC-3): > 100 µM (inactive)
- GI50 (SNB-19): > 100 µM (inactive)
- GI50 (SF-539): > 100 µM (inactive)
- GI50 (NCI-H23): > 100 µM (inactive)
- GI50 (A549): > 100 µM (inactive)
- GI50 (DU-145): > 100 µM (inactive)
- GI50 (KM12): > 100 µM (inactive)
- GI50 (K562): 4.12 µM (inactive)
- GI50 (SR): 0.07 µM (active)
- GI50 (TK-10): > 100 µM (inactive)
- GI50 (U-251): > 100 µM (inactive)
- GI50 (SF-295): > 100 µM (inactive)
- GI50 (BT-549): > 100 µM (inactive)
- GI50 (SF-268): > 100 µM (inactive)
- GI50 (SK-MEL-5): > 100 µM (inactive)
- GI50 (A498): > 100 µM (inactive)
- GI50 (SK-OV-3): > 100 µM (inactive)
- GI50 (HCT-15): 8.71 µM
- GI50 (ACHN): > 100 µM (inactive)
- GI50 (SW-620): 4.36 µM (inactive)
- GI50 (OVCAR-3): > 100 µM (inactive)
- GI50 (SK-MEL-2): > 100 µM (inactive)
- GI50 (MDA-N): 23.2 µM (inactive)
- GI50 (RXF 393): > 100 µM (inactive)
- GI50 (OVCAR-4): > 100 µM (inactive)
- GI50 (MDA-MB-435): 8.59 µM (inactive)
- GI50 (M14): 5.85 µM (inactive)
- GI50 (SK-MEL-28): > 100 µM (inactive)
- GI50 (OVCAR-5): > 100 µM (inactive)
- GI50 (CAKI-1): > 100 µM (inactive)
- GI50 (UO-31): > 100 µM (inactive)
- GI50 (LOX IMVI): > 100 µM (inactive)
- GI50 (OVCAR-8): > 100 µM (inactive)
- GI50 (NCI-H522): > 100 µM (inactive)
- GI50 (COLO 205): > 100 µM (inactive)
- GI50 (786-0): > 100 µM (inactive)
- GI50 (UACC-257): > 100 µM (inactive)
- GI50 (CCRF-CEM): 0.675 µM (active)
- GI50 (HOP-92): > 100 µM (inactive)
- GI50 (IGROV-1): > 100 µM (inactive)
- GI50 (HCC 2998): > 100 µM (inactive)
- GI50 (T47D): > 100 µM (inactive)
- GI50 (MCF7): > 100 µM (inactive)
- GI50 (HT-29): > 100 µM (inactive)
- GI50 (UACC-62): > 100 µM (inactive)
- GI50 (SN12C): > 100 µM (inactive)
- GI50 (RPMI-8226): 35.1 µM (inactive)
- GI50 (Hs-578T): > 100 µM (inactive)
- GI50 (MDA-MB-231): > 100 µM (inactive)
- GI50 (NCI/ADR-RES): > 100 µM (inactive)
- GI50 (MOLT-4): 23.6 µM (inactive)
- GI50 (HL-60): 0.692 µM (active)
